According to article PMC5735564 (Journal for Immunotherapy of Cancer, 2017):
Entries after “also recorded” stand apart in the source; their conditions may differ. Read-outs that look alike come from different tables or passages of the source.

Tests used:
Recombinant human Arg2 = molecular target: T1, Recombinant human Arg2 (Homo sapiens, UniProt P78540); assay: Recombinant arginase activity assay (Arg2); type: biochemical; details: 20 mM L-arginine; N = 2; mean (±SD)
T1 construct: Recombinant human arginase 2 (Arg2) comprising amino acids 23–254 was purchased from US Biological; purchased US Biological (Salem, MA)
T1 sequence (P78540 23-354): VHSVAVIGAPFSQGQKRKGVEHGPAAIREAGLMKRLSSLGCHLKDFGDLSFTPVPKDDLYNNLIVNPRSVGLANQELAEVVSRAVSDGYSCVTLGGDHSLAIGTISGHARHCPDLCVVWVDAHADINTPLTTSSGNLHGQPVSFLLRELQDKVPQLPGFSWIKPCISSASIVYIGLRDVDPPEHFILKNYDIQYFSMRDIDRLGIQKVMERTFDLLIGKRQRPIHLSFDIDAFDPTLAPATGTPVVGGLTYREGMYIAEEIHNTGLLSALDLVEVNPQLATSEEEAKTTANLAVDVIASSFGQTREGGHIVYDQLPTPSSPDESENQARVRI
Description: Recombinant human arginase 2 (Arg2) comprising amino acids 23–254 was purchased from US Biological (Salem, MA). […] Activity was determined by a spectrophotometric assay using the QuantiChrom Urea Assay Kit (BioAssay Systems, Hayward, CA) or by quantification of the generation of ^13C(5)-L-ornithine from ^13C(6)-L-arginine using a SCIEX API4000 mass spectrometer (Applied Biosystems, Foster City, CA). Urea produced or ^13C(5)-L-ornithine peak areas were plotted and fitted to a four-parameter equation using GraphPad Prism software (San Diego, CA) to determine IC50 values.

[1] = test system: intracellular arginase in HepG2 cell line; assay: Native arginase activity in intact HepG2 cells; type: cell-based, human; details: 10 mM L-arginine; urea in media after 24 h; N = 3; mean (±SD)
Description: (§1) Intracellular arginase activity was determined for the arginase-expressing HepG2 and K-562 cell lines as follows. […] The medium was harvested after 24 h and urea generated was determined with the QuantiChrom Urea Assay Kit. Wells containing media without cells were used as background controls.

[2] = test system: intracellular arginase in K562 cell line; assay: Native arginase activity in intact K-562 cells; type: cell-based, human; details: 10 mM L-arginine; urea in media after 24 h; N = 2; mean (±SD)
Description: as §1

[3] = test system: human granulocytes co-cultured with autologous T cells; assay: T cell/granulocyte co-culture assay (healthy donor); type: cell-based; details: for IC50: Homo sapiens, T-cell, granulocytes to T cells 0.25 to 1
Description: T cells or NK cells were purified from healthy donor human blood or from murine splenocytes using a negative selection kit for the appropriate cell type and species from Stemcell Technologies. Isolated T cells or NK cells were loaded with carboxyfluorescein succinimidyl ester (CFSE, Thermo Fisher) and stimulated for 72–96 h in complete growth medium containing a minimum of either 50 μM L-arginine (NK cells) or 100 μM L-arginine (T cells). For T cell stimulation, a solution of 10 μg/mL anti-CD3 (human clones UCHT1 or OKT3; murine clone 145-2C11) was used to coat the wells of a 96-well plate and then T cells were stimulated on immobilized anti-CD3 in the presence of 2 μg/mL soluble anti-CD28 (human clone CD28.2; murine clone 37.51). NK cells were stimulated with recombinant IL-2. Proliferation was quantified by analyzing CFSE dilution by flow cytometry (Guava flow cytometer, Millipore, Billerica, MA or Attune NxT flow cytometer, ThermoFisher).
Freshly isolated granulocytes were incubated for 48 h at 37 °C, during which time they spontaneously activate as determined by increased surface expression of CD66b and scatter properties. T cells isolated from the same healthy donor using a pan-T cell isolation kit (Stemcell Technologies) were loaded with CFSE and plated with immobilized anti-CD3 and soluble anti-CD28 in the presence of the aged granulocytes. The cells were co-cultured at several ratios of granulocytes to T cells as indicated in the figure or at a fixed ratio of 4 T cells to 1 granulocyte. […] Granulocytic MDSC (G-MDSC) or granulocytes from cancer patients were isolated from whole blood purchased from Conversant Biologics. G-MDSCs were purified from the PBMC layer of a Ficoll gradient by positive selection for CD66b^+ cells. Granulocytes were purified from the RBC layer of a Ficoll gradient using Hetasep (Stemcell Technologies). […] Cytokines were quantified in the media from T cell co-culture assays using the Cytometric Bead Array kit according to the manufacturer’s instructions (BD Biosciences).

[4] = test system: granulocytic MDSCs from a lung cancer patient / healthy donor T cells; assay: T cell proliferation in G-MDSC-conditioned media (lung cancer patient); type: cell-based, human
Description: Freshly isolated granulocytes were incubated for 48 h at 37 °C, during which time they spontaneously activate as determined by increased surface expression of CD66b and scatter properties. T cells isolated from the same healthy donor using a pan-T cell isolation kit (Stemcell Technologies) were loaded with CFSE and plated with immobilized anti-CD3 and soluble anti-CD28 in the presence of the aged granulocytes. The cells were co-cultured at several ratios of granulocytes to T cells as indicated in the figure or at a fixed ratio of 4 T cells to 1 granulocyte. Co-cultures were incubated for 3–4 days, at which time the medium was analyzed for L-arginine and L-ornithine by mass spectrometry and T cell proliferation was determined by flow cytometry. Granulocytic MDSC (G-MDSC) or granulocytes from cancer patients were isolated from whole blood purchased from Conversant Biologics. G-MDSCs were purified from the PBMC layer of a Ficoll gradient by positive selection for CD66b^+ cells. Granulocytes were purified from the RBC layer of a Ficoll gradient using Hetasep (Stemcell Technologies). Granulocytes and G-MDSCs were characterized by flow cytometry for CD66b expression. […] Cytokines were quantified in the media from T cell co-culture assays using the Cytometric Bead Array kit according to the manufacturer’s instructions (BD Biosciences).

[5] = test system: granulocytes from a head and neck cancer patient / healthy donor T cells; assay: T cell proliferation in granulocyte-conditioned media (head and neck cancer patient); type: cell-based, human
Description: Freshly isolated granulocytes were incubated for 48 h at 37 °C, during which time they spontaneously activate as determined by increased surface expression of CD66b and scatter properties. T cells isolated from the same healthy donor using a pan-T cell isolation kit (Stemcell Technologies) were loaded with CFSE and plated with immobilized anti-CD3 and soluble anti-CD28 in the presence of the aged granulocytes. The cells were co-cultured at several ratios of granulocytes to T cells as indicated in the figure or at a fixed ratio of 4 T cells to 1 granulocyte. Co-cultures were incubated for 3–4 days, at which time the medium was analyzed for L-arginine and L-ornithine by mass spectrometry and T cell proliferation was determined by flow cytometry. Granulocytic MDSC (G-MDSC) or granulocytes from cancer patients were isolated from whole blood purchased from Conversant Biologics. G-MDSCs were purified from the PBMC layer of a Ficoll gradient by positive selection for CD66b^+ cells. Granulocytes were purified from the RBC layer of a Ficoll gradient using Hetasep (Stemcell Technologies). Granulocytes and G-MDSCs were characterized by flow cytometry for CD66b expression. Freshly isolated G-MDSC or granulocytes were incubated in co-culture medium containing 100 μM L-arginine for 48 h, at which time the cells were removed and the G-MDSC- or granulocyte-conditioned media were used for incubating healthy donor CFSE-loaded T cells on immobilized anti-CD3/soluble anti-CD28 for 3–4 days. Cytokines were quantified in the media from T cell co-culture assays using the Cytometric Bead Array kit according to the manufacturer’s instructions (BD Biosciences).

[6] = Pharmacokinetic and pharmacodynamic study in LLC tumor-bearing mice; type: in vivo, mouse; details: oral dosing, pharmacodynamic effect
LLC tumors [7] = assay: LLC syngeneic tumor model; type: in vivo, mouse
B16 tumors = assay: B16 syngeneic tumor model; type: in vivo, mouse
4T1 tumors = assay: 4T1 orthotopic tumor model; type: in vivo, mouse
LLC tumors [8] = assay: LLC tumors in conditional Arg1 deleted mice; type: in vivo, mouse; details: 100 mg/kg every 12 h for 14 days, oral
Description: Arg1 floxed mice were crossed to the Tie2-Cre deleter strain (The Jackson Laboratory) as previously described. Experimental mice were generated from crossing Arg1 ^Flox/Flox; Tie2-Cre ^+ males with Arg1 ^Flox/Flox; Tie2-Cre ^− females, with Cre negative littermates serving as wild-type controls. […] LLC cells (10^6 per mouse) were injected s.c. in the flank region. […] Mice were euthanized, and tumors excised and weights recorded. Myeloid deletion of Arg1 was confirmed via western blotting of IL-4-stimulated bone marrow-derived macrophages for all animals.

LLC tumors [9] = assay: LLC tumors in SCID mice; type: in vivo, mouse; details: 100 mg/kg twice daily
CT26 tumors = assay: CT26 syngeneic tumor model
Description: Female wild-type C57BL/6 and Balb/c mice (5–6 weeks old) were purchased from Charles River Laboratories (Hollister, CA). Severe combined immune deficient (SCID, B6.CB17-PrkdcSCID/SzJ) and Pmel-1 TCR transgenic (B6.Cg-Thy1a/Cy Tg(TcraTcrb)8Rest/J) mice (5–6 weeks old) were purchased from The Jackson Laboratory (Bar Harbor, ME). All mice were housed and treated in accordance with Institutional Animal Care and Use Committee guidelines. For the 4T1 tumor model, 10^5 cells were injected orthotopically into the mammary fat pad; for all other tumor models, 10^6 cells were injected subcutaneously (s.c.) in the right flank. […] Control groups received vehicle (water) twice daily by gavage. Tumor volume measured by digital caliper (length × width × width/2) and body weight were recorded three times per week. Animals were euthanized when tumors necrotized or volumes reached 2000 mm^3. For the CT26 model, anti-PD-L1 antibody (5 mg/kg, clone 10F.9G2, BioXCell, West Lebanon, NH) was injected intraperitoneally (i.p.) on days 5, 7, 9, 11, 13, and 15. […] Gemcitabine (Selleckchem, Houston, TX) was dosed 50 mg/kg i.p. on days 10 and 16 for the CT26 model, 60 mg/kg i.p. on days 6 and 10 for the LLC model, or 30 mg/kg i.p. on day 5 for the 4T1 model [17, 18]. […] For CD8^+ cell depletion, mice were injected i.p. with anti-CD8 antibody (25 mg/kg, clone 2.43, BioXCell) on days −1, 0, + 5, and +10. For NK cell depletion, mice were injected i.p. with anti-NK1.1 antibody (25 mg/kg, clone PK136, BioXCell) in the LLC and B16 models or with anti-Asialo GM1 sera (20 μL, Wako Chemicals, Richmond, VA) in the CT26 model, per the same schedule as anti-CD8.
Excised tumors were placed on ice in RPMI-1640 medium containing 5% FBS, minced with a razor blade, and dissociated in RPMI-1640 supplemented with mouse tumor dissociation enzymes (Miltenyi Biotec, Bergisch Gladbach, Germany) on a GentleMACS Octo Dissociator With Heat (Miltenyi Biotec) according to the manufacturer’s instructions. Dissociated tumors were strained through 70 μm nylon mesh, washed with cold PBS containing 2% FBS, blocked with anti-CD16/CD32 (Fc block antibody, eBioscience), and stained for cell surface antigens. For B16 and 4T1 tumors, washed dissociated tumor cells were incubated with Dead Cell Removal MicroBeads (Miltenyi Biotec) and applied to a magnetic column prior to staining. For intracellular staining, cells were fixed and permeabilized using buffers purchased from R&D Systems or eBioscience for cytoplasmic or nuclear antigens, respectively. All tumor flow experiments were acquired on an Attune NxT flow cytometer and analyzed with FlowJo software version 10 (Ashland, OR), using fluorescence-minus-one controls for gating and single-stained OneComp eBeads (eBioscience) to set compensation matrices.

tumor growth = test system: tumor growth; parameters: method as in PMID 15313928; details: cited from earlier work
[10] = parameters: method as in PMID 20219858; details: nor-NOHA injected over a period of 10 weeks; cited from earlier work
[11] = 100 mg/kg twice daily for 23 days, CT26-inoculated mice
[12] = flow cytometry, study day 14, 100 mg/kg BID
[13] = 100 mg/kg twice daily, depleting antibodies
[14] = flow cytometry, study day 10, 100 mg/kg BID

Q: What does the source list for `C[C@H](N)C(=O)N1C[C@H](CCCB(O)O)[C@](N)(C(=O)O)C1` [CB-1158]?
A: IC50 (Recombinant human Arg2): 296 nM; IC50 [1]: 32000 nM; IC50 [2]: 139000 nM; IC50 ([3]; Fig. 1d left, read-out: IC50, consumption of L-arginine from the media by granulocytes): 411 nM; IC50 ([3]; Fig. 1d right, read-out: IC50, granulocyte-mediated suppression of T cell proliferation): 204 nM; T cell proliferation restored, of the proliferation observed for T cells without granulocytes ([3]; co-culture with activated granulocytes): 90%; arginine depletion from the media [4]: blocked; T cell proliferation restored, of control levels ([4]; MDSCs to T cells 1 to 1): 99%; arginine depletion from the media ([5]; granulocyte-conditioned media): blocked; T cell proliferation restored, of control levels ([5]; granulocyte-conditioned media, granulocytes to T cells 0.5 to 1): 79%; secretion of interferon-γ and granzyme-B into the media ([5]; media from Fig. 1f, Cytometric Bead Array): restored; amount of L-arginine in plasma and tumors [6]: raised; clinical observations and body weight (Tolerability in mice; [11]): no significant clinical observations or impact on body weight; tolerability (Tolerability in mice; [11]): well-tolerated; tolerability (Tolerability in mice; twice-daily oral dosing for at least 40 days): well-tolerated; tumor growth, single agent (LLC tumors [7]; 100 mg/kg twice daily, oral): significantly inhibited; effect of depletion of CD8+ cells on efficacy (LLC tumors [7]; 100 mg/kg twice daily, study day 13): smaller effect; efficacy after depletion of NK cells (LLC tumors [7]; 100 mg/kg twice daily, study day 14): loss of efficacy; inflammatory cytokines in tumors vs vehicle (LLC tumors [7]; Luminex, 200 mg/kg twice daily for 14 days): increases; transcripts of interferon-responsive genes in tumors vs vehicle (LLC tumors [7]; Nanostring, 100 mg/kg twice daily for 13 days): increases; CD8+ T cells in the tumor vs vehicle (LLC tumors [7]; [12]): increase; CD68+ macrophages in the tumor vs vehicle (LLC tumors [7]; [12]): decrease; tumor growth, single agent (B16 tumors; 100 mg/kg twice daily, oral): significantly inhibited; efficacy after depletion of either CD8+ cells or NK cells (B16 tumors; [13]): blocked the efficacy; tumor-infiltrating activated CD8+ CD25+ cytotoxic T cells vs vehicle (B16 tumors; flow cytometry, study day 9, 100 mg/kg BID): increase; tumor growth, single agent (4T1 tumors; 100 mg/kg twice daily, oral): significantly inhibited; also recorded: modest effect; CD3+ T cells in the tumor vs vehicle (4T1 tumors; [14]): increase; NK cells in the tumor vs vehicle (4T1 tumors; [14]): increase; myeloid cells in the tumor vs vehicle (4T1 tumors; [14]): decrease; tumor growth in Arg flox/flox; Tie2-Cre+ (ARG1ΔM) mice (LLC tumors [8]): no further reduction in tumor growth; efficacy in the SCID background (LLC tumors [9]): abrogated; tumor growth, single agent (CT26 tumors; 100 mg/kg twice daily, oral): significantly inhibited; efficacy after depletion of either CD8+ cells or NK cells (CT26 tumors; [13]): blocked the efficacy; tumor-infiltrating activated CD8+ CD25+ cytotoxic T cells vs vehicle (CT26 tumors; [12]): increase

Q: With `Nc1ccn([C@@H]2O[C@H](CO)[C@@H](O)C2(F)F)c(=O)n1` [Gemcitabine, gemcitabine, reference compound] as the compound, how does the “CD11b+ myeloid cells in the tumors” value (CT26 tumors; flow cytometry, study day 14) read?
A: Its value is “significant decrease”.

Q: For `N=C(NO)NCC[C@H](N)C(=O)O` [nor-NOHA], which tumor growth (tumor growth; injection of nor-NOHA) is on record?
A: The tumor growth was “reduced tumor growth”.

Q: And the tolerability (tumor growth; multi-day studies in mice)?
A: The tolerability was “well-tolerated”.

Q: What about the tolerability [10] of the same compound?
A: Its tolerability is “well-tolerated”.
